PubChem BioAssay (NCI)
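Step 1: Grow cells in 96-well plates. Step 2: Expose to compound for 48 hours at 5 concentrations. Step 3: Interpolate endpoints linearly; if unreached, use highest concentration. TGI: total growth inhibition.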

Tests used:
Test in all cases: NCI-60 cell line screen, 48 h
[1] = tested on: HCT-116 colon
[2] = tested on: MDA-N
[3] = tested on: PC-3 prostate
[4] = tested on: HL-60(TB) leukemia
[5] = tested on: MDA-MB-435
[6] = tested on: CCRF-CEM leukemia
[7] = tested on: LOX IMVI melanoma
[8] = tested on: UO-31 renal
[9] = tested on: MCF7 breast
[10] = tested on: T-47D breast
[11] = tested on: TK-10 renal
[12] = tested on: SF-295 CNS
[13] = tested on: UACC-62 melanoma
[14] = tested on: MALME-3M melanoma
[15] = tested on: BT-549 breast
[16] = tested on: KM12 colon
[17] = tested on: ACHN renal
[18] = tested on: HT29 colon
[19] = tested on: SK-OV-3 ovarian
[20] = tested on: SNB-19 CNS
[21] = tested on: OVCAR-4 ovarian
[22] = tested on: SF-268 CNS
[23] = tested on: SNB-75 CNS
[24] = tested on: HS 578T breast
[25] = tested on: IGROV1 ovarian
[26] = tested on: SK-MEL-2 melanoma
[27] = tested on: SK-MEL-28 melanoma
[28] = tested on: A549 NSCLC
[29] = tested on: MDA-MB-231 breast
[30] = tested on: HCT-15 colon
[31] = tested on: MOLT-4 leukemia
[32] = tested on: M14 melanoma
[33] = tested on: SW-620 colon
[34] = tested on: OVCAR-8 ovarian
[35] = tested on: NCI-H522 lung
[36] = tested on: A498 renal
[37] = tested on: NCI-H23 lung
[38] = tested on: U251 CNS
[39] = tested on: CAKI-1 renal
[40] = tested on: COLO 205 colon
[41] = tested on: SF-539 CNS
[42] = tested on: OVCAR-5 ovarian
[43] = tested on: DU-145 prostate
[44] = tested on: EKVX NSCLC
[45] = tested on: SK-MEL-5 melanoma
[46] = tested on: NCI-H226 lung
[47] = tested on: SN12C renal
[48] = tested on: UACC-257 melanoma
[49] = tested on: RXF 393 renal
[50] = tested on: NCI/ADR-RES ovarian
[51] = tested on: 786-0 renal
[52] = tested on: HOP-62 NSCLC
[53] = tested on: NCI-H460 lung
[54] = tested on: RPMI-8226 leukemia
[55] = tested on: OVCAR-3 ovarian
[56] = tested on: SR leukemia
[57] = tested on: HCC-2998 colon
[58] = tested on: K-562 leukemia

Measured: TGI

CC1(CC(=O)OC(C#C[Si](C)(C)C)Cc2ccccc2)OCCO1 (centres undefined)
not listed: [53] | [54] | [55] | [56] | [57] | [58]
> 100 µM: all other assays above

N#C/C(N)=C(\C#N)N=CNc1ccccc1N
not listed: [49]
> 100 µM: all other assays above
